# Columns and labels:
# Test in all cases: Bliss excess, mean over the matrix (fraction); higher = more synergy
# [1] = system: LK-2 (Squamous Cell Lung Carcinoma)
# Procedure, shortened: (§1)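 Cell lines in DMEM/F12 or RPMI with 10% FBS were plated in 1536-well plates, held 24 hours at 37°C, 5% CO2, then given two-drug dose matrices for 72 hours (DMSO typically 0.2%). Viability was read by CellTiter-Glo 2.0 luminescence and scaled as inhibition from 0 (vehicle wells) to 1 (blank wells). Combination Emax is the second-highest inhibition in the matrix; Bliss excess is observed combination effect minus expected EA + EB − EA·EB, EA and EB being single-agent effects.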
# [2] = system: GP5d (Colorectal Carcinoma)
# Procedure, shortened: as §1
# [3] = system: FADU (Head and Neck Carcinoma)
# Procedure, shortened: as §1
# [4] = system: SK-PN-DW (Other Solid Carcinomas)
# Procedure, shortened: as §1
# [5] = system: KE-37 (T-Lymphoblastic Leukemia)
# Procedure, shortened: as §1
# [6] = system: PC-3_[JPC-3] (Lung Adenocarcinoma)
# Procedure, shortened: as §1
# [7] = system: PANC-03-27 (Pancreatic Carcinoma)
# Procedure, shortened: as §1
# WM793B (Melanoma) = system: WM793B (Melanoma)
# Procedure, shortened: as §1
# SF268 (Low Grade Glioma) = system: SF268 (Low Grade Glioma)
# Procedure, shortened: as §1
# [8] = system: NCI-H446 (Small Cell Lung Carcinoma)
# Procedure, shortened: as §1
# LN-229 (Glioblastoma) = system: LN-229 (Glioblastoma)
# Procedure, shortened: as §1
# SF539 (Glioblastoma) = system: SF539 (Glioblastoma)
# Procedure, shortened: as §1
# [9] = system: RERF-LC-Sq1 (Squamous Cell Lung Carcinoma)
# Procedure, shortened: as §1
# [10] = system: MKN45 (Gastric Carcinoma)
# Procedure, shortened: as §1
# IST-MES1 (Mesothelioma) = system: IST-MES1 (Mesothelioma)
# Procedure, shortened: as §1
# A2058 (Melanoma) = system: A2058 (Melanoma)
# Procedure, shortened: as §1
# [11] = system: SHP-77 (Small Cell Lung Carcinoma)
# Procedure, shortened: as §1
# [12] = system: NCI-H2342 (Lung Adenocarcinoma)
# Procedure, shortened: as §1
# [13] = system: MFE-280 (Endometrial Carcinoma)
# Procedure, shortened: as §1
SMILES,Bliss excess [1],Bliss excess [2],Bliss excess [3],Bliss excess [4],Bliss excess [5],Bliss excess [6],Bliss excess [7],Bliss excess (WM793B (Melanoma)),Bliss excess (SF268 (Low Grade Glioma)),Bliss excess [8],Bliss excess (LN-229 (Glioblastoma)),Bliss excess (SF539 (Glioblastoma)),Bliss excess [9],Bliss excess [10],Bliss excess (IST-MES1 (Mesothelioma)),Bliss excess (A2058 (Melanoma)),Bliss excess [11],Bliss excess [12],Bliss excess [13]
"CN(C)CCCOc1ccc(-c2ccc3ncc4c(c3c2)n(C2CCOCC2)c(=O)n4C)cn1 [AZD0156] + C=CCn1c(=O)c2cnc(Nc3ccc(N4CCN(C)CC4)cc3)nc2n1-c1cccc(C(C)(C)O)n1 [AZD1775] (first compound max 1 µM, partner max 1 µM)",-0.048,-0.0369,0.0316,-0.0282,0.0241,-0.0018,-0.063,-0.0081,-0.0665,-0.0399,-0.0831,-0.0023,0.0224,-0.0774,-0.0624,-0.0313,-0.0219,-0.0612,0.0145
"CN(C)CCCOc1ccc(-c2ccc3ncc4c(c3c2)n(C2CCOCC2)c(=O)n4C)cn1 [AZD0156] + CCN(CCO)CCCOc1ccc2c(Nc3cc(CC(=O)Nc4cccc(F)c4)[nH]n3)ncnc2c1 [AZD2811] (first compound max 1 µM, 7x7, partner max 1 µM)",0.0201,0.004,0.0626,0.0147,-0.0173,-0.0524,-0.0519,0.0212,-0.0204,-0.0587,-0.0331,-0.0196,0.0325,0.0034,-0.0439,-0.0201,-0.034,-0.054,0.0072
"CN(C)CCCOc1ccc(-c2ccc3ncc4c(c3c2)n(C2CCOCC2)c(=O)n4C)cn1 [AZD0156] + C[C@@H]1COCCN1C2=NC(=NC(=C2)C3(CC3)[S@](=N)(=O)C)C4=C5C=CNC5=NC=C4 [AZD6738] (first compound max 1 µM, 7x7, partner max 10 µM)",-0.0261,0.0291,0.0537,-0.075,0.0459,-0.006,-0.0078,0.0342,-0.0359,0.0625,-0.0412,0.0274,0.0544,0.0072,-0.0679,-0.0135,0.0535,-0.0487,-0.0116
"C=CCn1c(=O)c2cnc(Nc3ccc(N4CCN(C)CC4)cc3)nc2n1-c1cccc(C(C)(C)O)n1 [AZD1775] + C[C@@H]1COCCN1C2=NC(=NC(=C2)C3(CC3)[S@](=N)(=O)C)C4=C5C=CNC5=NC=C4 [AZD6738] (first compound max 1 µM, partner max 10 µM)",-0.0086,0.0418,0.0676,0.0186,0.0552,-0.0732,-0.0426,-0.034,0.0337,0.0581,-0.0069,0.0027,0.0211,-0.0711,-0.025,0.0553,0.0598,-0.0687,0.0536
"C=CCn1c(=O)c2cnc(Nc3ccc(N4CCN(C)CC4)cc3)nc2n1-c1cccc(C(C)(C)O)n1 [AZD1775] + O=C(c1cc(Cc2n[nH]c(=O)c3ccccc23)ccc1F)N1CCN(C(=O)C2CC2)CC1 [Olaparib] (first compound max 1 µM, partner max 10 µM)",-0.0148,0.0252,-0.0303,-0.0694,0.0513,-0.0515,-0.032,-0.0236,-0.0312,0.0223,-0.0851,0.0258,-0.0211,-0.005,-0.0409,-0.0049,-0.0436,-0.0372,-0.0652
"CCN(CCO)CCCOc1ccc2c(Nc3cc(CC(=O)Nc4cccc(F)c4)[nH]n3)ncnc2c1 [AZD2811] + C=CCn1c(=O)c2cnc(Nc3ccc(N4CCN(C)CC4)cc3)nc2n1-c1cccc(C(C)(C)O)n1 [AZD1775] (first compound max 1 µM, partner max 1 µM)",-0.0952,0.08,0.0047,0.0431,0.0353,-0.0752,0.001,0.02,-0.0005,0.015,-0.0363,0.0972,-0.0102,-0.0302,-0.04,-0.0059,0.0241,-0.0052,0.0727
"CCN(CCO)CCCOc1ccc2c(Nc3cc(CC(=O)Nc4cccc(F)c4)[nH]n3)ncnc2c1 [AZD2811] + C[C@@H]1COCCN1C2=NC(=NC(=C2)C3(CC3)[S@](=N)(=O)C)C4=C5C=CNC5=NC=C4 [AZD6738] (first compound max 1 µM, 7x7, partner max 10 µM)",-0.064,-0.0575,-0.0165,-0.0306,-0.0515,-0.0453,-0.123,-0.0709,-0.027,-0.0514,-0.0563,-0.0262,-0.0169,-0.0439,-0.0613,0.0067,-0.0583,-0.0706,-0.0223
"CCN(CCO)CCCOc1ccc2c(Nc3cc(CC(=O)Nc4cccc(F)c4)[nH]n3)ncnc2c1 [AZD2811] + O=C(c1cc(Cc2n[nH]c(=O)c3ccccc23)ccc1F)N1CCN(C(=O)C2CC2)CC1 [Olaparib] (first compound max 1 µM, 7x7, partner max 10 µM)",-0.0329,-0.0785,0.0347,-0.0482,-0.0019,-0.0067,-0.0161,-0.015,0.0105,-0.0882,-0.0223,0.0434,0.0361,-0.0434,-0.0102,0.0093,-0.0191,-0.02,0.0174

# Source: the supplement of paper PMC11061612
